In patent publication US8114991B2, “Amino-1,3,5-triazines N-substituted with chiral bicyclic radicals, process for their preparation, compositions thereof, and their use as herbicides and plant growth regulators” (Bayer Cropscience AG, priority 2003, dated 2012):

Tests used:
[1] = test system: harmful plants such as Stellaria media, Lolium multiforum, Amaranthus retroflexus, Sinapis alba, Avena sativa and Setaria viridis; assay: Pre-emergence effect on weeds (greenhouse pot test); assay type: in vivo; conditions: application rate of 1 kg or less of active ingredient per hectare; scored after 3 to 4 weeks by comparison with untreated controls
From the text: Seeds or rhizome pieces of monocotyledonous and dicotyledonous weed plants were placed in sandy loam in plastic pots and covered with soil. The compounds according to the invention, which were formulated in the form of wettable powders or emulsion concentrates, were then applied to the surface of the soil cover as aqueous suspension or emulsion at various dosages with an application rate of 600 to 800 l of water per ha (converted).
After the treatment, the pots were placed into a greenhouse and kept under good growth conditions for the weeds. The plant or emergence damage was scored visually after the test plants have emerged after an experimental time of 3 to 4 weeks by comparison with untreated controls.

[2] = test system: harmful plants such as Sinapis alba, Echinochloa crus-galli, Lolium multiflorum, Stellaria media, Cyperus iria, Amaranthus retroflexus, Setaria viridis, Avena …; assay: Post-emergence effect on weeds (greenhouse pot test); assay type: in vivo; conditions: application rate of 2 kg or less of active ingredient per hectare; treated in the three-leaf stage; scored after approx. 3 to 4 weeks by comparison with untreated controls

| Structure (SMILES) | pre-emergence control of harmful plants (plant or emergence damage scored visually) [1] | herbicidal post-emergence activity against harmful plants (scored visually) [2] |
| --- | --- | --- |
| CCCc1nc(N)nc(N[C@@H]2CCCc3c(C)cc(C)cc32)n1 [Compound 8.61] | very good pre-emergence control | very good herbicidal post-emergence activity |
| Cc1ccc2c(c1)[C@H](Nc1nc(C)nc(N)n1)[C@@H](C)C2 [Compound 7.2] | very good pre-emergence control | very good herbicidal post-emergence activity |
| CC(C)(F)c1nc(N)nc(N[C@@H]2CCc3ccc(F)cc32)n1 [Compound 8.197] | very good pre-emergence control | very good herbicidal post-emergence activity |
| C[C@@H](F)c1nc(N)nc(N[C@H]2c3cc(Cl)ccc3C[C@@H]2C)n1 [Compound 2.4] | very good pre-emergence control | very good herbicidal post-emergence activity |
| CC(C)c1nc(N)nc(N[C@@H]2CCc3ccc(F)cc32)n1 [Compound 8.68] | very good pre-emergence control | very good herbicidal post-emergence activity |
| C[C@@H](Cl)c1nc(N)nc(N[C@@H]2CCCc3ccccc32)n1 [Compound 1.28] | very good pre-emergence control | very good herbicidal post-emergence activity |
| C[C@H]1Cc2ccccc2[C@@H]1Nc1nc(N)nc(C(F)(F)F)n1 [Compound 7.239] | very good pre-emergence control | very good herbicidal post-emergence activity |
| Cc1nc(N)nc(N[C@H]2c3cc(Cl)ccc3C[C@@H]2C)n1 [Compound 7.4] | very good pre-emergence control | very good herbicidal post-emergence activity |
| CCCC(F)c1nc(N)nc(N[C@@H]2CCCc3ccc(C)cc32)n1 (stereo partly drawn) [Compound 10.66] | very good pre-emergence control | very good herbicidal post-emergence activity |
| CCCc1nc(N)nc(N[C@@H]2CCOc3ccc(C)cc32)n1 [Compound 8.231] | very good pre-emergence control | very good herbicidal post-emergence activity |
| Cc1nc(N)nc(N[C@H]2c3ccccc3CC[C@@H]2C)n1 [Compound 7.11] | very good pre-emergence control | very good herbicidal post-emergence activity |
| C[C@@H](Cl)c1nc(N)nc(N[C@@H]2CCc3ccccc32)n1 [Compound 1.24] | very good pre-emergence control | very good herbicidal post-emergence activity |
| CCc1ccc2c(c1)[C@H](Nc1nc(N)nc(C(C)C)n1)CC2 [Compound 8.247] | very good pre-emergence control | very good herbicidal post-emergence activity |
| Cc1ccc2c(c1C)OCC[C@H]2Nc1nc(N)nc(C(C)(C)F)n1 [Compound 8.241] | very good pre-emergence control | very good herbicidal post-emergence activity |
| Cc1ccc2c(c1)[C@H](Nc1nc(N)nc([C@@H](C)F)n1)CCC2 [Compound 1.12] | very good pre-emergence control | very good herbicidal post-emergence activity |
| Cc1ccc2c(c1)CC(C)C2Nc1nc(N)nc(C(C)F)n1 (stereo not drawn) [Compound 4.2] | very good pre-emergence control | very good herbicidal post-emergence activity |
| Cc1cc(C)c2c(c1)[C@H](Nc1nc(N)nc([C@@H](C)F)n1)CCC2 [Compound 1.15] | very good pre-emergence control | very good herbicidal post-emergence activity |

| Structure (SMILES) | pre-emergence control of harmful plants (plant or emergence damage scored visually) [1] | herbicidal post-emergence activity against harmful plants (scored visually) [2] |
| --- | --- | --- |
| CCc1nc(N)nc(N[C@@H]2CCOc3c2ccc(C)c3C)n1 [Compound 8.242] | very good pre-emergence control | very good herbicidal post-emergence activity |
| Cc1ccc2c(c1)[C@H](Nc1nc(N)nc([C@@H](C)F)n1)[C@@H](C)C2 [Compound 2.2] | very good pre-emergence control | very good herbicidal post-emergence activity |
| COCc1nc(N)nc(N[C@@H]2CCCc3ccccc32)n1 [Compound 8.234] | very good pre-emergence control | very good herbicidal post-emergence activity |
| CCc1nc(N)nc(N[C@@H]2CCCc3ccccc32)n1 [Compound 8.34] | very good pre-emergence control | very good herbicidal post-emergence activity |
| CCCc1nc(N)nc(N[C@H]2c3ccccc3CC[C@@H]2C)n1 [Compound 7.57] | very good pre-emergence control | very good herbicidal post-emergence activity |
| N#CCc1nc(N)nc(N[C@@H]2CCCc3ccccc32)n1 [Compound 8.255] | very good pre-emergence control | very good herbicidal post-emergence activity |
| Nc1nc(N[C@@H]2CCCc3ccccc32)nc(C2(F)CC2)n1 [Compound 8.170] | very good pre-emergence control | very good herbicidal post-emergence activity |
| Cc1ccc2c(c1)[C@H](Nc1nc(N)nc(C(C)C)n1)CCO2 [Compound 8.75] | very good pre-emergence control | very good herbicidal post-emergence activity |
| CCCc1nc(N)nc(N[C@@H]2CCOc3c(F)cccc32)n1 [Compound 8.240] | very good pre-emergence control | very good herbicidal post-emergence activity |
| Cc1ccc2c(c1)[C@H](Nc1nc(N)nc([C@@H](C)F)n1)[C@H](C)C2 [Compound 5.2] | very good pre-emergence control | very good herbicidal post-emergence activity |
| Nc1nc(N[C@@H]2CCCc3ccccc32)nc(C(F)F)n1 [Compound 8.256] | very good pre-emergence control | very good herbicidal post-emergence activity |
| Cc1ccc2c(c1)[C@H](Nc1nc(N)nc(C(C)(C)F)n1)CC2 [Compound 8.196] | very good pre-emergence control | very good herbicidal post-emergence activity |
| Nc1nc(CF)nc(N[C@@H]2CCc3ccccc32)n1 [Compound 8.90] | very good pre-emergence control | very good herbicidal post-emergence activity |
| CC(C)(F)c1nc(N)nc(N[C@@H]2CCCc3ccccc32)n1 [Compound 8.205] | very good pre-emergence control | very good herbicidal post-emergence activity |
| Cc1ccc2c(c1)[C@H](Nc1nc(N)nc([C@@H](C)F)n1)CCO2 [Compound 1.21] | very good pre-emergence control | very good herbicidal post-emergence activity |
| Cc1nc(N)nc(N[C@@H]2CCc3cc(C)c(C)cc32)n1 [Compound 8.7] | very good pre-emergence control | very good herbicidal post-emergence activity |
